Consider five compounds from patent US11059815B2, “Synthesis of small molecule histone deacetylase 6 degraders, compounds formed thereby, and pharmaceutical compositions containing them” (Wisconsin Alumni Research Foundation, priority 2018, dated 2021).

This test addresses T1, HDAC6 (Homo sapiens, UniProt Q9UBN7).
T1 construct: endogenous in cells; host or cells: MM1S (ATCC CRL-2974)
T1 sequence (Q9UBN7 1-1215): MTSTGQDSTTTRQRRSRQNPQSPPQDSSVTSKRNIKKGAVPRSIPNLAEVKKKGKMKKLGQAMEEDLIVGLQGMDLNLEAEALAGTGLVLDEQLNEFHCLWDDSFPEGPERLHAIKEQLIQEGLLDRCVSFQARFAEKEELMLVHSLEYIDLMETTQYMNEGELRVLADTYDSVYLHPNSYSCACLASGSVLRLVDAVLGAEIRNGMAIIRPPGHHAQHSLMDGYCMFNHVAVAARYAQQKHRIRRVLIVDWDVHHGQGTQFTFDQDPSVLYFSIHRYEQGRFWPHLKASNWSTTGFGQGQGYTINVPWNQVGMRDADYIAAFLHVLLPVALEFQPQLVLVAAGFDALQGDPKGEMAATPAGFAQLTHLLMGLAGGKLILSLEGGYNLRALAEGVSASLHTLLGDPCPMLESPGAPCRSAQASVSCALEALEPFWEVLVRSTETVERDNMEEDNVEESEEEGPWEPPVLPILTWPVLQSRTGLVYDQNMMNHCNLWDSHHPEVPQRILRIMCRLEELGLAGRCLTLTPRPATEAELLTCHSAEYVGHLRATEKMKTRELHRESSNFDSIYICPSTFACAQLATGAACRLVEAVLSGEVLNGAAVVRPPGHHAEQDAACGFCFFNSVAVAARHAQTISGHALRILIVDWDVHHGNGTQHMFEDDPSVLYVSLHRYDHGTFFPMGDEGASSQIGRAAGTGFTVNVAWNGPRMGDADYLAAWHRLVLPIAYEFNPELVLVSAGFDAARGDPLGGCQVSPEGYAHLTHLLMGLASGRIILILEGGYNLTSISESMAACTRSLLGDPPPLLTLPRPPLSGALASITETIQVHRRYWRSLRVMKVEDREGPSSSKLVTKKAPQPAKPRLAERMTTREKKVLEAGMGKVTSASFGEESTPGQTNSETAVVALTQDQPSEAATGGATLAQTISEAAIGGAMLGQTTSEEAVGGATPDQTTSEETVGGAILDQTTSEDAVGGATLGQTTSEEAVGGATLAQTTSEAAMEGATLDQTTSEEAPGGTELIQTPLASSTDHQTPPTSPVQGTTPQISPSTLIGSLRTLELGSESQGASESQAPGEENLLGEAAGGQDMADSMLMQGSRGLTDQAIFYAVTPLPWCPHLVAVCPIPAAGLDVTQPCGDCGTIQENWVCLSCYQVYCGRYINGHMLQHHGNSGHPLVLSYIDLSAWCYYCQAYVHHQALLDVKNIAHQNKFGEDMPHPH
Kind of test: In-cell ELISA of HDAC6 protein level in MM1S cells. Type of test: cell-based. The conditions noted are these: 6 h; for DC50 / Dmax: 0.1 nM to 1 μM, nonlinear fit, ± SD; for Dmax / inhibition at 0.01 µM / inhibition at 0.1 µM: MM1.S; for Dmax: read-out: Dmax (Vehicle %); for inhibition at 0.01 µM: n=3, read-out: Degradation (%) 10 nM; for inhibition at 0.1 µM: n=3, read-out: Degradation (%) 100 nM. As to the method:
FIG. 9 is a histogram depicting the results of screening of compounds for HDAC6 degradation activity by in-cell ELISA. MM1S cells were treated with compounds at 100 nM (blue bars) or 10 nM (red bars) for 6 h. Data was normalized to vehicle (DMSO)-treated group and the bar graph represents as mean of relative HDAC6 protein level (n=3) with ±SD as error bar. Statistical significance was analyzed by one-way ANOVA. Not significant (ns) P>0.05, *P≤0.05, **P≤0.01, ***P≤0.001, ****P≤0.0001.
FIG. 11 is a graph depicting dose response of selected degrader candidates. MM1S cells were treated for 6 h and analyzed by in-cell ELISA. Data was normalized to vehicle (DMSO)-treated group and dot plot represented as mean relative expression (n=3) with ±SD as error bar. Nonlinear fitting of inhibitor concentration vs. response (three parameters) was generated by GraphPad Prism with R2 from 0.97 to 0.99.
FIG. 15 is a histogram depicting relative HDAC6 expression as a function of linker length for compounds 3a through 3k as described in the Examples section, Part 2. Human MM1S cells were treated with 100 nM degraders for 6 hours and analyzed by in-cell ELISA assay.
FIG. 17 is a dose-response curve for degraders 3j (n=1), 3k (n=12) and 2, at concentrations from 1 nM to 300 nM for 4 h in MM1S. See the Examples, Part 2.
To screen the new series of degraders, an in-cell ELISA assay was developed and validated. The compounds were treated at 100 nM and 10 nM in MM1S cells for 6 h. Resulting cells were then fixed and analyzed by in-cell ELISA. […] Degraders including 1 at 100 nM degraded 73.5% to 85.0% of HDAC6 with minor difference. At 10 nM concentration of compounds, obvious structure-activity-relationship (SAR) was observed. […] For example, 12d, 12h, 12i, 12o and 12p all achieved about 70% degradation. Among the C4-linked series, 12d with medium length linker (5+1) achieved most degradation in sub-series 12a-e (m=1). […] Among C5-linked series, the potency of sub-series 12l-p (m=1) increased with the linker length. […] It appeared that both the distance and linking positions contributed to the degradation efficiency. The rigid triazole ring in the middle of the linker likely modulated the plasticity of degrader-bridged ternary complex.
The amount of cellular HDAC6 was measured in response to concentrations of compounds from 0.1 nM to 1 μM. […] The new degraders had single-digit nanomolar DC50, which was about 3 to 5 fold of improvement from 9.12 nM of degrader 1. […] As discussed above, most PROTACs were designed to avoid degrading other proteins except the targeted POIs. However, in these studies, it was hypothesized that HDAC6 degraders with IKZF degradation will have enhanced anti-proliferation effect MM1S cells.
MM1S cells were harvested and plated with 5×10^5 cells in 100 μL media per well 96-wells plate. After overnight seeding, 25 μL media containing 5× dosing concentration of the compounds or vehicle was added to each well. After 6-hour treatment at 37° C. in a humidified 5% CO2 atmosphere, cells were fixed by adding 125 μL 8% formaldehyde in TBS buffer (137 mM NaCl, 25 mM Tris, 2.7 mM potassium chloride, pH 7.6) and incubated at room temperature (RT) for 15 minutes. Removal of fixing solution was followed by once rinse and twice washes with TBS-T washing buffer (137 mM NaCl, 20 mM Tris, 0.1% Tween, pH 7.6). Cells were then permeabilized by adding 100 μL 0.1% Triton-X in TBS and incubated at RT for 15 minutes. Removal of permeabilizing solution was followed by once rinse and once wash with TBS-T. Cellular endogenous peroxidases were quenched by adding 100 μL 1% H2O2 in TBS and incubation at RT for 20 minutes. Removal of quenching solution was followed by once rinse and once wash with TBS-T. Non-specific binding sites were blocked by adding […] 5% BSA in TBS-T (with 0.02% NaN3) and incubation at 4° C. overnight. […]
In general terms: ELISA stands for enzyme-linked immunosorbent assay.

Setting [1] is: 10 nM, 100% minus mean (± SD) relative HDAC6 expression.
[2] abbreviates: 100 nM, 100% minus mean (± SD) relative HDAC6 expression.

Regarding `CCCCN(Cc1ccc(C(=O)NO)cc1)C(=O)Nc1ccc(OCCCCCn2cc(CNc3cccc4c3C(=O)N(C3CCC(=O)NC3=O)C4=O)nn2)cc1` (stereo not drawn) [Compound 12d, 4-((1-butyl-3-(4-((5-(4-(((2-(2,6-dioxopiperidin-3-yl)-1,3-dioxoisoindolin-4-yl)amino)methyl)-1H-1,2,3-triazol-1-yl)pentyl)oxy)phenyl)ureido)methyl)-N-hydroxybenzamide], the DC50 stood at 1.64 nM and the Dmax came out at 86.3 ± 1.7%. In addition, under setting [1], the inhibition at 0.01 µM was about 70%. In addition, under setting [2], the inhibition at 0.1 µM was 82.7 ± 1.7%.
Regarding `O=C(CCCCCCC(=O)N/N=C/c1ccc(OCCOCCOCCn2cc(CNc3cccc4c3C(=O)N(C3CCC(=O)NC3=O)C4=O)nn2)cc1)NO` (stereo not drawn) [Compound 1], the DC50 was 9.12 nM and the Dmax worked out at 84.1 ± 2.41%. The “Degradation (%) 10 nM” value (10 nM, 100% minus mean (± SD) relative HDAC6 expression, n=3) is listed as 47.9 ± 0.9%. In addition, under setting [1], the inhibition at 0.01 µM came out at 47.9%. The inhibition at 0.1 µM under setting [2] was 73.5 ± 0.3%.
As to `Nc1cccc2c1C(=O)N(C1CCC(=O)NC1=O)C2=O` (stereo not drawn) [Pomalidomide, reference compound], the “effect on expression of HDAC6 compared with vehicle” value (“effect … compared with vehicle” below) was “didn't affect” (10 nM) and “very minimal effects” (100 nM).
As for `CCCCN(Cc1ccc(C(=O)NO)cc1)C(=O)Nc1ccccc1` [Next-A, 4-[[butyl[(phenylamino)carbonyl]amino]methyl]-N-hydroxy-benzamide, reference compound], the “effect … compared with vehicle” value (10 nM) is “didn't affect” and the “effect … compared with vehicle” value (100 nM) is “very minimal effects”.
With `CCCCN(Cc1ccc(C(=O)NO)cc1)C(=O)Nc1ccc(OCCCn2cc(CNc3ccc4c(c3)C(=O)N(C3CCC(=O)NC3=O)C4=O)nn2)cc1` (stereo not drawn) [Compound 12m, 4-((1-butyl-3-(4-(3-(4-(((2-(2,6-dioxopiperidin-3-yl)-1,3-dioxoisoindolin-5-yl)amino)methyl)-1H-1,2,3-triazol-1-yl)propoxy)phenyl)ureido)methyl)-N-hydroxybenzamide], the inhibition at 0.01 µM under setting [1] worked out at 60.3 ± 1.3%. In addition, the inhibition at 0.1 µM under setting [2] stood at 81.2 ± 0.6%.
